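Values below derive from 48-hour exposures of cells grown in 96-well plates, with endpoints linearly interpolated between the two concentrations bracketing the appropriate inhibition level. At the TGI there is no net growth.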
What was measured:
Test in all cases: DTP human tumour cell line panel, 48 h
HOP-92 NSCLC = system: HOP-92 NSCLC
UACC-62 melanoma = system: UACC-62 melanoma
SK-MEL-2 melanoma = system: SK-MEL-2 melanoma
SF-268 CNS = system: SF-268 CNS
T-47D breast = system: T-47D breast
EKVX NSCLC = system: EKVX NSCLC
SNB-19 CNS = system: SNB-19 CNS
A549 NSCLC = system: A549 NSCLC
SW-620 colon = system: SW-620 colon
ACHN renal = system: ACHN renal

Compound | TGI (HOP-92 NSCLC) [µM] | TGI (UACC-62 melanoma) [µM] | TGI (SK-MEL-2 melanoma) [µM] | TGI (SF-268 CNS) [µM] | TGI (T-47D breast) [µM] | TGI (EKVX NSCLC) [µM] | TGI (SNB-19 CNS) [µM] | TGI (A549 NSCLC) [µM] | TGI (SW-620 colon) [µM] | TGI (ACHN renal) [µM]
CCCN(CCC)C1CCc2c(ccc3cc[nH]c23)C1 (stereo not given) | > 100 | > 100 | > 100 | > 100 | > 100 | > 100 | > 100 | > 100 | > 100 | > 100
COC1(c2cccs2)c2ccccc2C(OC)(c2cccs2)c2ccccc21 (stereo not given) | > 100 | > 100 | > 100 | > 100 | > 100 | > 100 | > 100 | > 100 | > 100 | > 100
COC(=O)c1ccccc1C1=C([N+](=O)[O-])C(c2ccccc2)C(C#N)=C(N)O1 (stereo not given) | > 100 | > 100 | > 100 | > 100 | > 100 | > 100 | > 100 | > 100 | > 100 | > 100
O=[N+]([O-])c1ccc(O)c(/C=N/c2nc(-c3ccccc3)cs2)c1 | 75.2 | 30.8 | 70.5 | 78 | 91.6 | > 100 | > 100 | > 100 | > 100 | > 100
COC(=O)C1=CON2C3CC4CC(C3)CC(C4)C12C (stereo not given) | > 100 | > 100 | > 100 | > 100 | > 100 | > 100 | > 100 | > 100 | > 100 | > 100
CN(C)CCNC(=O)c1ccc(Cl)c2cc3ccccc3nc12 | 2.2 | 2.85 | 4.94 | 5.05 | 12.1 | 4.78 | 14.3 | 3.08 | 6.68 | 12.1
N#CC[N+]1(Cc2ccccn2)CCCC1 | > 100 | > 100 | > 100 | > 100 | > 100 | > 100 | > 100 | > 100 | > 100 | > 100
CN(C)CC1CCC/C(=C\c2ccc(OC(=O)/C=C/c3ccc(Cl)c(Cl)c3)cc2)C1=O (stereo not given) | 4.27 | 33.3 | 44.8 | 36.1 | 6.75 | 23.5 | 18.6 | 24.4 | 7.86 | 3.46
O=C1CS(=O)(=O)C(c2cccc(Oc3ccccc3)c2)N1c1ccccc1 (stereo not given) | 32.8 | 27 | 31.5 | 75.8 | > 100 | 54.2 | > 100 | > 100 | > 100 | 64.8
COc1ccc2c(c1)c1nn(CCN3CCCCC3)c3ccc4c(=O)n(CCN(C)C)c(=O)n2c4c13 | 0.901 | 0.197 | 0.271 | 0.0766 | 0.454 | 0.0406 | 0.532 | 0.0497 | 0.0751 | 0.243
O=C(O)CNC(=O)c1ccc2cc(C(=O)N3CC(CCl)c4ccc([N+](=O)[O-])cc43)[nH]c2c1 (stereo not given) | > 100 | > 100 | > 100 | > 100 | > 100 | > 100 | > 100 | > 100 | > 100 | > 100
COc1cc(CCN(C)C)cc(OC)c1OC | > 100 | > 100 | > 100 | > 100 | > 100 | > 100 | > 100 | > 100 | > 100 | > 100
COc1ccc(N=C2C(=Nc3ccc(OC)cc3)N(c3ccc(N(C)C)cc3)C(=S)N2c2ccc(OC)cc2)cc1 | > 100 | > 100 | > 100 | > 100 | > 100 | > 100 | > 100 | > 100 | > 100 | > 100
COc1ccc2c(c1)CCN1CCCc3ccccc3C21 (stereo not given) | > 100 | > 100 | > 100 | > 100 | > 100 | > 100 | > 100 | > 100 | > 100 | > 100
CCCc1nnc2sc(COc3cc(Cl)c(OCc4nn5c(CCC)nnc5s4)cc3Cl)nn12 | 70.7 | > 100 | > 100 | > 100 | 63.5 | 82.2 | > 100 | > 100 | > 100 | > 100
CN(Cc1cnc2nc(N)nc(N)c2n1)c1ccc(C(=O)NC(CCC(=O)NC(CC(P(=O)(O)O)P(=O)(O)O)C(=O)O)C(=O)O)cc1 (stereo not given) | > 100 | > 100 | > 100 | > 100 | > 100 | > 100 | > 100 | > 100 | > 100 | > 100
CCCCCCCCCCCCCCCCCC(=O)Nc1ccn(C2CCC(COP(=O)(O)O)O2)c(=O)n1 (stereo not given) | > 100 | > 100 | > 100 | > 100 | > 100 | > 100 | > 100 | > 100 | > 100 | > 100
